pIC50: −log10 of the molar value. Read-outs that look alike come from different tables or passages of the source. Each block holds one compound with its values, some of them ahead of it.
What was measured:
[1] = test system: HaCat cells; experiment: Cell viability of HaCat keratinocytes, Neutral Red Staining; assay type: cell-based, human; settings: for Responsiveness of HaCat cells (viability): comparison of thioridazine, doxorubicin, 5-FU, FIG. 3A; for pIC50: Homo sapiens, HaCaT, read-out: Mean IC50 in keratinocytes, HaCat; for Effect on viability of HaCat cells: 5-100 μM, 24 hr
Protocol: (§1) In general, 10,000 cells/well were treated with drugs from different categories of psychotropic drugs.
(§2) The effect of the drugs was compared at equimolar concentrations to that of two commonly used anticancer agents (Doxorubicin and 5-fluorouracil (5-FU)).

[2] = test system: HaCat A5 cells; experiment: Cell viability of HaCat A5 keratinocytes, Neutral Red Staining; assay type: cell-based, human; settings: for Effect on viability of HaCat A5 cells: 5-100 μM, 24 hr
Protocol: as §1, §2

[3] = test system: MDR B16 melanoma cells; experiment: Sensitization of MDR B16 melanoma cells to doxorubicin; assay type: cell-based; settings: 24 hr
[4] = test system: IL-2 and INF-γ secretion from mouse splenocytes; experiment: Con-A-induced splenocyte secretion of IL-2 and INF-γ; assay type: cell-based; settings: 48 hours, 2.5-10 μM; FIG. 14
Protocol: (§3) In particular, cells 1×10^6 cells/well were exposed for 48 hours to each drug (2.5-10 μM).

[5] = test system: wild type B16 melanoma cells; experiment: Effect on doxorubicin toxicity in wild type B16 melanoma cells; assay type: cell-based; settings: clomipramine 10, […], 20 μM + doxorubicin 1, 2.5, 5 μM, 24 hr
[6] = test system: HaCat cells; experiment: Apoptosis by Hoechst 33342 / propidium iodide fluorescence microscopy; assay type: cell-based, human; settings: 20 μM, 24 hours
Protocol: In particular, HaCat cells (10,000/well) were exposed to the different drugs (20 μM) or to saline (control). Twenty four hours post exposure, the cells were co-stained with the DNA binding dyes, Hoechst 33342 (20 μg/ml) propidium iodide (PI) (10 μg/ml), for 5 min at room temperature. The cells were then examined using a fluorescence microscope with ultraviolet excitation at 340-380 nm. Typically, intact cells are detected by a blue Hoechst fluorescence while fragmented nuclear is detected by a red fluorescence, indicating cells undergoing apoptosis [Harel et al., Sensitivity of HaCat keratinocytes to diabetogenic toxins, Biochem. Pharmacol., 63:171-178, 2002].

[7] = test system: mouse splenocytes; experiment: Con-A-induced mouse splenocyte proliferation, Alamar blue; assay type: cell-based; settings: for Splenocyte proliferation: 48 hours
Protocol: The effect of several psychotropic drugs on the proliferation of Con-A-induced mouse splenocyte proliferation was examined. The specific drugs evaluated included, without being limited thereto, the bicyclic antidepressants paroxetine and sertraline.
In particular, mouse splenocytes were isolated from C57BL healthy female mice. […]
Cell viability was assessed 48 hr later using Alamar blue staining.
as §3
(§4) As described above, cells were exposed to each drug for 48 hours.

[8] = test system: HaCat II-4RT cells; experiment: Cell viability of HaCat II-4RT keratinocytes, Neutral Red Staining; assay type: cell-based, human; settings: for Effect on viability of HaCat II4 cells: 5-100 μM, 24 hr
Protocol: as §1, §2

[9] = test system: wild type B16 melanoma cells; experiment: Cell viability of wild type B16 melanoma cells; assay type: cell-based; settings: 24 hr, 10-100 μM
[10] = test system: MDR B16 melanoma cells; experiment: Cell viability of MDR B16 melanoma cells; assay type: cell-based; settings: 24 hr
Protocol: Specifically, the different drugs were applied for 24 hr to the cells (20,000/well) at concentrations of 10, 20, 30, 50, 75 and 100 μM.

[11] = test system: TNF-α secretion from mouse splenocytes; experiment: Con-A-induced TNF-α secretion from mouse splenocytes, ELISA; assay type: cell-based; settings: 48 hours; for pIC50: Mus musculus, Splenocyte, 2.5-20 μM, mean of three experiments
Protocol: Cells treated with Con-A alone served as the control (“Con-A”).
In particular, mouse splenocyte cells 1×10 (cells/well) were exposed, for 48 hours, to the different drugs and ConA and at the end of the experiment plates were centrifuged and supernatant collected for cytokine determination and TNF-α levels were determined in soups by ELISA. (R&D #DY410 Minnapolis USA)
as §4

[12] = test system: caspase-3 in human HaCaT cells; experiment: Caspase-3 activation, fluorimetric Ac-DEVD-AMC method; assay type: cell-based; settings: 4 hours, paroxetine 10-20 μM, sertraline 10-[…] μM
Protocol: An additional marker for apoptosis is the activation of caspase-3 (a key mediator implicated in apoptosis in mammalian cells belong to the asparate-specific cysteinyl proteases or caspases).
In the following assay caspase-3 activation was measured by an enzymatic fluorimetric method, using fluorigenic substrate (Ac-DEVD-AMC) (Biomol, PA, USA) which produces a blue fluorescence detected at a 360 nm wavelength. The fluorigenic moiety AMC is cleaved from the substrate in the presence of caspase-3 (and caspase-3-like enzymes), which results in appearance of a yellow-green fluorescence monitored by a fluorimeter at 460 nm. The amount of the yellow-green fluorescence is proportional to the activity of the caspase-3 in the cell extract sample.
[…]. […] Measurements were determined, after the 4 hr exposure, every 3 min during 45 min, after which a specific caspase 3 inhibitor DEVD-AMC-CHO (Alexis corp. Lausen Switzerland) was added to half of the samples and measurements continued for another 45 min as previously described (Garcia-Calvo M, Peterson E P, Leiting B, Ruel R, Nicholson D W, Thornberry N A: Inhibition of human caspases by peptide-based and macromolecular inhibitors. J Biol Chem, 27(49):32608-13, 1998).

[13] = test system: human lymphocytes; experiment: PHA-induced human lymphocyte proliferation, Alamar blue; assay type: cell-based; settings: PHA 2.5 μg/ml, 48 hr, 3 healthy volunteers
Protocol: Human lymphocytes were isolated from whole blood of 3 healthy volunteers. Lymphocyte proliferation was induced by exposure 1×10^6 cells/well to phytohemagglutinin (PHA) (2.5 μg/ml). Cell viability was assessed 48 hr post exposure to paroxetine (2.5-10.0 μM) using Alamar blue reagent (Wildflower, Santa Fe, N.M., USA) staining Nociari M M, Shalev A, Benias P , et al. A novel one-step highly sensitive fluorimetric assay to evaluate cell-mediated cytotoxicity. J. Immunol. Methods 213(2): 157-167, 1998.

[14] = 24 hr post-administration, Neutral Red, mean of several experiments

Compound: O=c1[nH]cc(F)c(=O)[nH]1 [5-FU, 5-fluorouracil]
- Responsiveness of HaCat cells (viability) [1]: resistant
- Responsiveness of HaCat A5 cells (viability) ([2]; comparison of thioridazine, doxorubicin, 5-FU, FIG. 3B): resistant

Compound: CN(C)CCCC1(c2ccc(F)cc2)OCc2cc(C#N)ccc21 (stereo not shown) [Citalopram, citalopram]
- pIC50 [1, 14]: < 4.00

Compound: CN(C)CCCN1c2ccccc2CCc2ccc(Cl)cc21 [Clomipramine, clomipramine]
- Cell viability in combination with doxorubicin [3]: significantly reduced, in a dose dependant manner
- Lymphocyte-induced cytokine secretion (IL-2, INF-γ) [4]: decrease in the lymphocyte-induced cytokine secretion
- Cell viability from control, in combination with doxorubicin [5]: less than 15%
- Effect on viability of HaCat cells [1]: effective in reducing viability
- Red fluorescence of nuclei indicating apoptosis [6]: dramatic increase in red fluorescence of nuclei
- Splenocyte proliferation ([7]; 2.5-10 μM, FIG. 14): dose dependent decrease in splenocyte proliferation
- Effect on viability of HaCat A5 cells [2]: effective in reducing viability
- Effect on viability of HaCat II4 cells [8]: effective in reducing viability
- Viability of wild type B16 melanoma cells [9]: capable of reducing cell viability

Compound: CN1CCN(C2=Nc3cc(Cl)ccc3Nc3ccccc32)CC1 [Clozapine, clozapine]
- Effect on viability of HaCat cells [1]: effective in reducing viability
- Viability of MDR B16 melanoma cells [10]: reduced in a dose dependent manner
- Effect on viability of HaCat A5 cells [2]: effective in reducing viability
- Effect on viability of HaCat II4 cells [8]: effective in reducing viability
- Viability of wild type B16 melanoma cells [9]: reduced in a dose dependent manner

Compound: CNCCC(Oc1ccc(C(F)(F)F)cc1)c1ccccc1 (stereo not shown) [Fluoxetine, fluoxetine]
- Effect on viability of HaCat cells [1]: effective in reducing viability
- Effect on viability of HaCat A5 cells [2]: effective in reducing viability
- Effect on viability of HaCat II4 cells [8]: effective in reducing viability
- Viability of wild type B16 melanoma cells [9]: capable of reducing cell viability, with fluoxetine being the most effective drug

Compound: CN(C)CCCN1c2ccccc2CCc2ccccc21 [Imipramine, imipramine]
- Effect on viability of HaCat cells [1]: effective in reducing viability
- Effect on viability of HaCat A5 cells [2]: effective in reducing viability
- pIC50 ([2]; Homo sapiens, HaCaT, 24 hr post-administration, Neutral Red, mean of several experiments): 4.21
- Effect on viability of HaCat II4 cells [8]: effective in reducing viability
- pIC50 ([8]; Homo sapiens, HaCaT, 24 hr post-administration, Neutral Red, mean of several experiments, read-out: Mean IC50 in keratinocytes, HaCatII4RT): 4.32

- pIC50 [11]: 5.60
Compound: Fc1ccc([C@@H]2CCNC[C@H]2COc2ccc3c(c2)OCO3)cc1 [Paroxetine, paroxetine]
- TNF-α secretion ([11]; 2.5-25 μM, FIG. 16): inhibited cell proliferation and TNF-α secretion in a dose dependent manner
- Lymphocyte-induced cytokine secretion (IL-2, INF-γ) [4]: decrease in the lymphocyte-induced cytokine secretion
- Effect on viability of HaCat cells [1]: effective in reducing viability
- pIC50 [1, 14]: 4.75
- Caspase-3 activity [12]: significant increase in caspase-3 activity
- Red fluorescence of nuclei indicating apoptosis [6]: dramatic increase in red fluorescence of nuclei
- Splenocyte proliferation ([7]; 2.5-10 μM, FIG. 14): dose dependent decrease in splenocyte proliferation
- Splenocyte proliferation ([7]; 2.5-25 μM, FIG. 16): inhibited cell proliferation and TNF-α secretion in a dose dependent manner
- pIC50 ([7]; Mus musculus, Splenocyte, 48 hr, 2.5-10 μM, C57BL mice): 5.26 to 5.60
- Effect on viability of HaCat A5 cells [2]: effective in reducing viability
- pIC50 [13]: 5.00 to 5.30
- Effect on viability of HaCat II4 cells [8]: effective in reducing viability
- Viability of wild type B16 melanoma cells [9]: capable of reducing cell viability

Compound: CCOc1ccccc1OC(c1ccccc1)C1CNCCO1 (stereo not shown) [Reboxetine, reboxetine]
- pIC50 ([1]; 24 h): < 4.00

Compound: CN[C@H]1CC[C@@H](c2ccc(Cl)c(Cl)c2)c2ccccc21 [Sertraline, sertraline]
- Caspase-3 activity [12]: significant increase in caspase-3 activity

Compound: CSc1ccc2c(c1)N(CCC1CCCCN1C)c1ccccc1S2 (stereo not shown) [Thioridazine, thioridazine]
- Effect on viability of HaCat cells [1]: effective in reducing viability
- Effect on viability of HaCat A5 cells [2]: effective in reducing viability
- Effect on viability of HaCat II4 cells [8]: effective in reducing viability

Compound: COc1ccc(C(CN(C)C)C2(O)CCCCC2)cc1 (stereo not shown) [Venlafaxine, venlafaxine]
- pIC50 [1, 14]: < 4.00

- pIC50 [11]: 6.22
Compound: C[C@@H]1C[C@H]2[C@@H]3CCC4=CC(=O)C=C[C@]4(C)[C@@]3(F)[C@@H](O)C[C@]2(C)[C@@]1(O)C(=O)CO [dexamethasone]

Compound: COc1cccc2c1C(=O)c1c(O)c3c(c(O)c1C2=O)C[C@@](O)(C(=O)CO)C[C@@H]3O[C@H]1C[C@H](N)[C@H](O)[C@H](C)O1 [doxorubicin]
- Responsiveness of HaCat cells (viability) [1]: equimolar IC50 as for thioridazine

Compound: NCCC(Oc1ccc(C(F)(F)F)cc1)c1ccccc1 (stereo not shown) [norfluoxetine]
- Antiproliferative activity as compared to fluoxetine ([1]; viability of HaCat cells, FIG. 10): five times increased antiproliferative activity

— US20050013853A1, “Anti-proliferative drugs” (priority 2000, published 2005)
